# Source: patent US20050197350A1, “Novel quinoline, tetrahydroquinazoline, and pyrimidine derivatives and methods of treatment related to the use thereof” (TAISHO PHARMACEUTICAL CO., LTD., priority 2003, published 2005)
# Test system: MCH receptors
# Test: MCH receptor activity class (method not given)
# Details: class by percent of control at 10^-7 M or IC50
row,Compound,class
1,CN(C)c1nc(N[C@H]2CC[C@@H](NC(=O)Nc3ccc4c(c3)OCCCO4)CC2)nc2c1CCCC2 [compound 1734],3 (Class 3 The value of percent of control at 10^−7 M was more than 60% or the value of IC50 was more than 200 nM.)
2,CCCCc1ccc(NC(=O)N[C@H]2CC[C@@H](Nc3nc4c(c(N(C)C)n3)CCCC4)CC2)c(C)c1 [compound 1735],3 (Class 3 The value of percent of control at 10^−7 M was more than 60% or the value of IC50 was more than 200 nM.)
3,Cc1onc(-c2ccccc2)c1NC(=O)N[C@H]1CC[C@@H](Nc2nc3c(c(N(C)C)n2)CCCC3)CC1 [compound 1736],1 (Class 1: The value of percent of control at 10^−7 M was less than 40% or the value of IC50 was less than 50 nM.)
4,CN(C)c1nc(N[C@H]2CC[C@@H](NC(=S)Nc3ccc(Br)cc3)CC2)nc2c1CCCC2 [compound 1737],3 (Class 3 The value of percent of control at 10^−7 M was more than 60% or the value of IC50 was more than 200 nM.)
5,CN(C)c1nc(N[C@H]2CC[C@@H](NC(=S)Nc3ccc(C#N)cc3)CC2)nc2c1CCCC2 [compound 1738],3 (Class 3 The value of percent of control at 10^−7 M was more than 60% or the value of IC50 was more than 200 nM.)
6,CN(C)c1nc(N[C@H]2CC[C@@H](NC(=S)Nc3ccc(Cl)cc3Cl)CC2)nc2c1CCCC2 [compound 1739],3 (Class 3 The value of percent of control at 10^−7 M was more than 60% or the value of IC50 was more than 200 nM.)
7,"COc1ccc(NC(=S)N[C@H]2CC[C@@H](Nc3nc4c(c(N(C)C)n3)CCCC4)CC2)c(OC)c1 [compound 1740, N-(2,4-dimethoxyphenyl)-N′-(cis-4-{[4-(dimethylamino)-5,6,7,8-tetrahydroquinazolin-2-yl]amino}cyclohexyl)thiourea]",1 (Class 1: The value of percent of control at 10^−7 M was less than 40% or the value of IC50 was less than 50 nM.)
8,Cc1cccc(C)c1NC(=S)N[C@H]1CC[C@@H](Nc2nc3c(c(N(C)C)n2)CCCC3)CC1 [compound 1741],3 (Class 3 The value of percent of control at 10^−7 M was more than 60% or the value of IC50 was more than 200 nM.)
9,CCc1cccc(C(C)C)c1NC(=S)N[C@H]1CC[C@@H](Nc2nc3c(c(N(C)C)n2)CCCC3)CC1 [compound 1742],3 (Class 3 The value of percent of control at 10^−7 M was more than 60% or the value of IC50 was more than 200 nM.)
10,COc1ccccc1NC(=S)N[C@H]1CC[C@@H](Nc2nc3c(c(N(C)C)n2)CCCC3)CC1 [compound 1743],3 (Class 3 The value of percent of control at 10^−7 M was more than 60% or the value of IC50 was more than 200 nM.)
11,CN(C)c1nc(N[C@H]2CC[C@@H](NC(=S)Nc3cccc4ccccc34)CC2)nc2c1CCCC2 [compound 1744],3 (Class 3 The value of percent of control at 10^−7 M was more than 60% or the value of IC50 was more than 200 nM.)
12,COc1cc(NC(=S)N[C@H]2CC[C@@H](Nc3nc4c(c(N(C)C)n3)CCCC4)CC2)cc(OC)c1OC [compound 1745],1 (Class 1: The value of percent of control at 10^−7 M was less than 40% or the value of IC50 was less than 50 nM.)
13,"COc1ccc(NC(=S)N[C@H]2CC[C@@H](Nc3nc4c(c(N(C)C)n3)CCCC4)CC2)cc1OC [compound 1746, N-(3,4-dimethoxyphenyl)-N′-(cis-4-{[4-(dimethylamino)-5,6,7,8-tetrahydroquinazolin-2-yl]amino}cyclohexyl)thiourea]",1 (Class 1: The value of percent of control at 10^−7 M was less than 40% or the value of IC50 was less than 50 nM.)
14,CN(C)c1nc(N[C@H]2CC[C@@H](NC(=S)Nc3ccc(N(C)C)c4ccccc34)CC2)nc2c1CCCC2 [compound 1747],2 (Class 2: The value of percent of control at 10^−7 M was from 40% to 60% or the value of IC′50 was from 50 nM to 200 nM.)
15,CCc1ccccc1NC(=S)N[C@H]1CC[C@@H](Nc2nc3c(c(N(C)C)n2)CCCC3)CC1 [compound 1748],3 (Class 3 The value of percent of control at 10^−7 M was more than 60% or the value of IC50 was more than 200 nM.)
16,COc1cc([N+](=O)[O-])ccc1NC(=S)N[C@H]1CC[C@@H](Nc2nc3c(c(N(C)C)n2)CCCC3)CC1 [compound 1749],3 (Class 3 The value of percent of control at 10^−7 M was more than 60% or the value of IC50 was more than 200 nM.)
17,COc1ccc(C)cc1NC(=S)N[C@H]1CC[C@@H](Nc2nc3c(c(N(C)C)n2)CCCC3)CC1 [compound 1750],2 (Class 2: The value of percent of control at 10^−7 M was from 40% to 60% or the value of IC′50 was from 50 nM to 200 nM.)
18,CN(C)c1nc(N[C@H]2CC[C@@H](NC(=S)Nc3ccc(Br)cc3Cl)CC2)nc2c1CCCC2 [compound 1751],1 (Class 1: The value of percent of control at 10^−7 M was less than 40% or the value of IC50 was less than 50 nM.)
19,CN(C)c1nc(N[C@H]2CC[C@@H](NC(=S)Nc3ccc(I)cc3)CC2)nc2c1CCCC2 [compound 1752],2 (Class 2: The value of percent of control at 10^−7 M was from 40% to 60% or the value of IC′50 was from 50 nM to 200 nM.)

row,Compound,class
1,CN(C)c1nc(N[C@H]2CC[C@@H](NC(=S)Nc3c(Cl)cc(Cl)cc3Cl)CC2)nc2c1CCCC2 [compound 1754],2 (Class 2: The value of percent of control at 10^−7 M was from 40% to 60% or the value of IC′50 was from 50 nM to 200 nM.)
2,Cc1cc(C)c(NC(=S)N[C@H]2CC[C@@H](Nc3nc4c(c(N(C)C)n3)CCCC4)CC2)c(C)c1 [compound 1755],1 (Class 1: The value of percent of control at 10^−7 M was less than 40% or the value of IC50 was less than 50 nM.)
3,Cc1ccc(NC(=S)N[C@H]2CC[C@@H](Nc3nc4c(c(N(C)C)n3)CCCC4)CC2)c(C)c1 [compound 1756],2 (Class 2: The value of percent of control at 10^−7 M was from 40% to 60% or the value of IC′50 was from 50 nM to 200 nM.)
4,CCc1cccc(CC)c1NC(=S)N[C@H]1CC[C@@H](Nc2nc3c(c(N(C)C)n2)CCCC3)CC1 [compound 1757],1 (Class 1: The value of percent of control at 10^−7 M was less than 40% or the value of IC50 was less than 50 nM.)
5,Cc1ccc(NC(=S)N[C@H]2CC[C@@H](Nc3nc4c(c(N(C)C)n3)CCCC4)CC2)c(Br)c1 [compound 1758],3 (Class 3 The value of percent of control at 10^−7 M was more than 60% or the value of IC50 was more than 200 nM.)
6,CN(C)c1nc(N[C@H]2CC[C@@H](NC(=S)NCc3ccccc3Cl)CC2)nc2c1CCCC2 [compound 1759],3 (Class 3 The value of percent of control at 10^−7 M was more than 60% or the value of IC50 was more than 200 nM.)
7,CCc1cccc(C)c1NC(=S)N[C@H]1CC[C@@H](Nc2nc3c(c(N(C)C)n2)CCCC3)CC1 [compound 1760],3 (Class 3 The value of percent of control at 10^−7 M was more than 60% or the value of IC50 was more than 200 nM.)
8,CC(C)c1ccccc1NC(=S)N[C@H]1CC[C@@H](Nc2nc3c(c(N(C)C)n2)CCCC3)CC1 [compound 1761],3 (Class 3 The value of percent of control at 10^−7 M was more than 60% or the value of IC50 was more than 200 nM.)
9,COC(=O)c1cccc(NC(=S)N[C@H]2CC[C@@H](Nc3nc4c(c(N(C)C)n3)CCCC4)CC2)c1 [compound 1762],3 (Class 3 The value of percent of control at 10^−7 M was more than 60% or the value of IC50 was more than 200 nM.)
10,"Cc1cc(Br)cc(C)c1NC(=S)N[C@H]1CC[C@@H](Nc2nc3c(c(N(C)C)n2)CCCC3)CC1 [compound 1763, N-(4-bromo-2,6-dimethylphenyl)-N′-(cis-4-{[4-(dimethylamino)-5,6,7,8-tetrahydroquinazolin-2-yl]amino}cyclohexyl)thiourea]",1 (Class 1: The value of percent of control at 10^−7 M was less than 40% or the value of IC50 was less than 50 nM.)
11,"Cc1cc(Br)ccc1NC(=S)N[C@H]1CC[C@@H](Nc2nc3c(c(N(C)C)n2)CCCC3)CC1 [compound 1764, N-(4-bromo-2-methylphenyl)-N′-(cis-4-{[4-(dimethylamino)-5,6,7,8-tetrahydroquinazolin-2-yl]amino}cyclohexyl)thiourea]",1 (Class 1: The value of percent of control at 10^−7 M was less than 40% or the value of IC50 was less than 50 nM.)
12,CN(C)c1nc(N[C@H]2CC[C@@H](NC(=S)Nc3ccc(Br)cc3C(F)(F)F)CC2)nc2c1CCCC2 [compound 1765],1 (Class 1: The value of percent of control at 10^−7 M was less than 40% or the value of IC50 was less than 50 nM.)
13,"Cc1cc(Cl)ccc1NC(=S)N[C@H]1CC[C@@H](Nc2nc3c(c(N(C)C)n2)CCCC3)CC1 [compound 1766, N-(4-chloro-2-methylphenyl)-N′-(cis-4-{[4-(dimethylamino)-5,6,7,8-tetrahydroquinazolin-2-yl]amino}cyclohexyl)thiourea]",1 (Class 1: The value of percent of control at 10^−7 M was less than 40% or the value of IC50 was less than 50 nM.)
14,CN(C)c1nc(N[C@H]2CC[C@@H](NC(=S)NCc3cccc4ccccc34)CC2)nc2c1CCCC2 [compound 1767],3 (Class 3 The value of percent of control at 10^−7 M was more than 60% or the value of IC50 was more than 200 nM.)
15,COc1cccc(CNC(=S)N[C@H]2CC[C@@H](Nc3nc4c(c(N(C)C)n3)CCCC4)CC2)c1OC [compound 1768],3 (Class 3 The value of percent of control at 10^−7 M was more than 60% or the value of IC50 was more than 200 nM.)
16,Cc1cc(C)c(NC(=S)N[C@H]2CC[C@@H](Nc3nc4c(c(N(C)C)n3)CCCC4)CC2)cc1C [compound 1769],3 (Class 3 The value of percent of control at 10^−7 M was more than 60% or the value of IC50 was more than 200 nM.)
17,CN(C)c1nc(N[C@H]2CC[C@@H](NC(=S)Nc3ccccc3-c3ccccc3)CC2)nc2c1CCCC2 [compound 1770],3 (Class 3 The value of percent of control at 10^−7 M was more than 60% or the value of IC50 was more than 200 nM.)
18,Cc1cc([N+](=O)[O-])ccc1NC(=S)N[C@H]1CC[C@@H](Nc2nc3c(c(N(C)C)n2)CCCC3)CC1 [compound 1771],3 (Class 3 The value of percent of control at 10^−7 M was more than 60% or the value of IC50 was more than 200 nM.)
19,CN(C)c1nc(N[C@H]2CC[C@@H](NC(=S)NCc3cccc(Cl)c3)CC2)nc2c1CCCC2 [compound 1772],3 (Class 3 The value of percent of control at 10^−7 M was more than 60% or the value of IC50 was more than 200 nM.)
